Experimental data from ChEMBL document CHEMBL1201862, “PubChem BioAssay data set” (2004).
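Briefly, cells in 96-well plates were exposed to five compound concentrations for 48 h, and endpoints were estimated by linear interpolation. GI50 = concentration required for 50% inhibition of growth.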 Calls of active or inactive are those of the source. Cut-off read from the data, not from the text of the source: active = GI50 up to about 1.1 µM and inactive = higher.

Assays:
Test in all cases: inhibition of tumour cell growth, NCI panel, 48 h
KM12 = test system: KM12
HOP-62 = test system: HOP-62
RXF 393 = test system: RXF 393
RPMI-8226 = test system: RPMI-8226
M19-MEL = test system: M19-MEL
NCI-H23 = test system: NCI-H23
DMS-273 = test system: DMS-273
NCI-H460 = test system: NCI-H460
786-0 = test system: 786-0
LOX IMVI = test system: LOX IMVI
SNB-75 = test system: SNB-75
HCT-15 = test system: HCT-15
A549 = test system: A549
SF-268 = test system: SF-268
DLD-1 = test system: DLD-1
SR = test system: SR
MDA-MB-231 = test system: MDA-MB-231
T47D = test system: T47D
Hs-578T = test system: Hs-578T
BT-549 = test system: BT-549

Row | SMILES | GI50 (KM12) | GI50 (HOP-62) | GI50 (RXF 393) | GI50 (RPMI-8226) | GI50 (M19-MEL) | GI50 (NCI-H23) | GI50 (DMS-273) | GI50 (NCI-H460) | GI50 (786-0) | GI50 (LOX IMVI) | GI50 (SNB-75) | GI50 (HCT-15) [µM] | GI50 (A549) | GI50 (SF-268) | GI50 (DLD-1) | GI50 (SR) | GI50 (MDA-MB-231) | GI50 (T47D) | GI50 (Hs-578T) | GI50 (BT-549)
1 | O=c1[nH]c(Br)nc2c(Br)c[nH]c12 | > 100 µM (inactive) | > 100 µM (inactive) | > 100 µM (inactive) | > 100 µM (inactive) | > 100 µM (inactive) | > 100 µM (inactive) | > 100 µM (inactive) | > 100 µM (inactive) | > 100 µM (inactive) | > 100 µM (inactive) | > 100 µM (inactive) | > 100 | > 100 µM (inactive) | > 100 µM (inactive) | > 100 µM (inactive) |  |  |  |  | 
2 | N#Cc1cc(NC(=O)c2ccccc2)c(=O)n2c1[nH]c1ccccc12 | 43.9 µM (inactive) | 24.5 µM (inactive) | 13.6 µM (inactive) | 11.7 µM (inactive) | 30.1 µM (inactive) | 20 µM (inactive) | 30.1 µM (inactive) | 33 µM (inactive) | 37.2 µM (inactive) |  | 25.9 µM (inactive) | 31 | 24.5 µM (inactive) | 43.1 µM (inactive) | 28.9 µM (inactive) |  |  |  |  | 
3 | Cc1nc(-n2nc(-c3ccccc3)cc2-c2ccccc2)sc1C(=O)CC(=O)C(=O)Nc1ccc(O)cc1 | > 100 µM (inactive) | > 100 µM (inactive) | > 100 µM (inactive) | > 100 µM (inactive) |  | > 100 µM (inactive) | > 100 µM (inactive) |  | > 100 µM (inactive) | > 100 µM (inactive) | > 100 µM (inactive) | > 100 | > 100 µM (inactive) | > 100 µM (inactive) | > 100 µM (inactive) | > 100 µM (inactive) |  |  |  | 
4 | Cc1cc2c3ccccc3n3c2c2c1OC1(C)CCC(C2C1)C3(C)C (stereo not given) | > 25 µM (inactive) | > 25 µM (inactive) |  | > 25 µM (inactive) | > 25 µM (inactive) |  | > 25 µM (inactive) | > 25 µM (inactive) | > 25 µM (inactive) | > 25 µM (inactive) |  | > 25 | > 25 µM (inactive) | > 25 µM (inactive) | > 25 µM (inactive) | > 25 µM (inactive) |  |  |  | 
5 | CCS(CC)(CC)CC1CCCC2=CCC(P(=O)(c3ccccc3)c3ccccc3)CC21 (stereo not given) | 11.4 µM (inactive) | 16.3 µM (inactive) | 9.66 µM (inactive) |  | 17.9 µM (inactive) | 10.5 µM (inactive) | 9.08 µM (inactive) | 10.3 µM (inactive) | 10.9 µM (inactive) | 14.7 µM (inactive) | 11 µM (inactive) | 8.26 | 4.89 µM (inactive) | 11.4 µM (inactive) | 11.2 µM (inactive) | 6.27 µM (inactive) |  |  |  | 
6 | O=C(O)c1cc(=O)c2[nH]c3ccccc3c2s1 | > 100 µM (inactive) | > 100 µM (inactive) | > 100 µM (inactive) | > 100 µM (inactive) | > 100 µM (inactive) | > 100 µM (inactive) |  | > 100 µM (inactive) | > 100 µM (inactive) |  | 41.4 µM (inactive) | > 100 | > 100 µM (inactive) | > 100 µM (inactive) | > 100 µM (inactive) |  |  |  |  | 
7 | Cc1ccc(S(=O)(=O)Nc2ccccc2C(C)(C)C)cc1 | 17.2 µM (inactive) | 20 µM (inactive) | 6.31 µM (inactive) | 18.7 µM (inactive) | 25.6 µM (inactive) | 15.5 µM (inactive) | 17.3 µM (inactive) | 18.6 µM (inactive) | 25.5 µM (inactive) |  | 35.9 µM (inactive) | 20.7 | 27.7 µM (inactive) |  | 30.8 µM (inactive) |  |  |  |  | 
8 | CC1(C)CC(=O)C=C(NC(=O)c2ccccc2)C1 | > 100 µM (inactive) | > 100 µM (inactive) | > 100 µM (inactive) | > 100 µM (inactive) | > 100 µM (inactive) | > 100 µM (inactive) | > 100 µM (inactive) | > 100 µM (inactive) | > 100 µM (inactive) | > 100 µM (inactive) | > 100 µM (inactive) | > 100 | > 100 µM (inactive) | > 100 µM (inactive) | > 100 µM (inactive) |  |  |  |  | 
9 | O=C1OC(c2ccccc2)=N/C1=C/NC(CO)C(=O)O (stereo not given) | > 100 µM (inactive) | > 100 µM (inactive) | > 100 µM (inactive) | > 100 µM (inactive) | > 100 µM (inactive) | > 100 µM (inactive) | > 100 µM (inactive) | > 100 µM (inactive) | > 100 µM (inactive) | > 100 µM (inactive) | > 100 µM (inactive) | > 100 | > 100 µM (inactive) | > 100 µM (inactive) | > 100 µM (inactive) |  |  |  |  | 
10 | O=C1OC(=O)C2C1C1(c3ccccc3)OC2(c2ccccc2)c2c(Br)c(Br)c(Br)c(Br)c21 (stereo not given) | > 100 µM (inactive) | > 100 µM (inactive) | 42.3 µM (inactive) | > 100 µM (inactive) | > 100 µM (inactive) | > 100 µM (inactive) | > 100 µM (inactive) | > 100 µM (inactive) | > 100 µM (inactive) | > 100 µM (inactive) | > 100 µM (inactive) | > 100 | > 100 µM (inactive) | > 100 µM (inactive) | > 100 µM (inactive) |  |  |  |  | 
11 | Clc1ccc2c(Cl)ncnc2c1 | > 100 µM (inactive) | > 100 µM (inactive) |  | > 100 µM (inactive) | > 100 µM (inactive) | > 100 µM (inactive) | > 100 µM (inactive) | > 100 µM (inactive) | > 100 µM (inactive) | > 100 µM (inactive) | 42.8 µM (inactive) | > 100 | > 100 µM (inactive) | > 100 µM (inactive) | > 100 µM (inactive) | > 100 µM (inactive) |  |  |  | 
12 | CCOCc1cc(=O)c2c(OC)cc3c(c2o1)CCC(C)(C)O3 | > 100 µM (inactive) | > 100 µM (inactive) | > 100 µM (inactive) |  | > 100 µM (inactive) | > 100 µM (inactive) |  | > 100 µM (inactive) | > 100 µM (inactive) | > 100 µM (inactive) | > 100 µM (inactive) | > 100 | > 100 µM (inactive) |  | > 100 µM (inactive) | > 100 µM (inactive) |  |  |  | 
13 | Oc1ccc([Te]CCNCC[Te]c2ccc(O)cc2)cc1 | 15 µM (inactive) | 18.2 µM (inactive) |  | 16.4 µM (inactive) | 7.29 µM (inactive) | 4.78 µM (inactive) | 18.2 µM (inactive) | 4.67 µM (inactive) | 28.7 µM (inactive) | 12.5 µM (inactive) | 6.55 µM (inactive) |  | 3.66 µM (inactive) | 11.1 µM (inactive) | 23 µM (inactive) | 5.19 µM (inactive) |  |  |  | 
14 | CC1=Nc2ccccc2C1C(Cc1ccccc1N)c1c(C)[nH]c2ccccc12 (stereo not given) | 16.6 µM (inactive) | 14.4 µM (inactive) | 20.2 µM (inactive) | 18.5 µM (inactive) | 17.4 µM (inactive) | 18.2 µM (inactive) |  | 17.2 µM (inactive) | 15.1 µM (inactive) | 15 µM (inactive) | 17.5 µM (inactive) | 16.4 | 18.3 µM (inactive) | 8.17 µM (inactive) | 18.2 µM (inactive) | 21.9 µM (inactive) |  |  |  | 
15 | COc1ccc2nccc(C3=CCC4CCN(C(=O)c5ccccc5)C3C4)c2c1 (stereo not given) | > 100 µM (inactive) | > 100 µM (inactive) | > 100 µM (inactive) | 46.1 µM (inactive) | > 100 µM (inactive) | > 100 µM (inactive) | > 100 µM (inactive) | > 100 µM (inactive) | > 100 µM (inactive) | > 100 µM (inactive) | 93.5 µM (inactive) | > 100 | > 100 µM (inactive) | > 100 µM (inactive) | > 100 µM (inactive) |  |  |  |  | 
16 | CC(=O)O/N=C(/C)c1ccccc1O | > 100 µM (inactive) | > 100 µM (inactive) | > 100 µM (inactive) | > 100 µM (inactive) | > 100 µM (inactive) | > 100 µM (inactive) | > 100 µM (inactive) | > 100 µM (inactive) | > 100 µM (inactive) | > 100 µM (inactive) | > 100 µM (inactive) |  | > 100 µM (inactive) | > 100 µM (inactive) | > 100 µM (inactive) |  |  |  |  | 
17 | COc1ccc2[nH]c3c(c2c1)CCN(C)CC3 | > 100 µM (inactive) | > 100 µM (inactive) |  | > 100 µM (inactive) | 57.4 µM (inactive) | > 100 µM (inactive) | > 100 µM (inactive) | > 100 µM (inactive) | > 100 µM (inactive) | > 100 µM (inactive) | > 100 µM (inactive) | > 100 | > 100 µM (inactive) | > 100 µM (inactive) | > 100 µM (inactive) |  |  |  |  | 
18 | Cc1ccc(-n2c3nc(=O)n(C)c(=O)c-3nc3ccccc32)cc1 | 17.3 µM (inactive) | 43.9 µM (inactive) | 64.9 µM (inactive) | 12.5 µM (inactive) |  | 1.56 µM (inactive) | 4.3 µM (inactive) | 3.33 µM (inactive) | 30.2 µM (inactive) | 20.4 µM (inactive) | 10.9 µM (inactive) | 8.18 | 6.43 µM (inactive) | 35.7 µM (inactive) | 27.6 µM (inactive) |  |  |  |  | 
19 | COc1ccc2c(=O)cc(-c3ccc(OC)c(OC)c3OC)oc2c1 | > 43.7 µM (inactive) | > 85.3 µM (inactive) | > 80.9 µM (inactive) | 16.9 µM (inactive) | 67.9 µM (inactive) | > 100 µM (inactive) |  | 99.3 µM (inactive) | > 100 µM (inactive) | > 75.7 µM (inactive) | 23.4 µM (inactive) | > 100 | 4.81 µM (inactive) | > 60.1 µM (inactive) | 53.3 µM (inactive) | 74.8 µM (inactive) | 38.7 µM (inactive) | > 100 µM (inactive) | 47.6 µM (inactive) | > 100 µM (inactive)
